Literature values, collected in US10517870B2, “Aryl substituted bicycle heteroaryl compounds” (Bristol-Myers Squibb Company, priority 2015, dated 2019).

What was measured:
[1] = molecular target: T1, protease-activated receptor type 4 (PAR4) (Homo sapiens, UniProt Q96RI0); conditions: Lee et al., J. Med. Chem. 2001; cited from earlier work
T1 sequence (Q96RI0 18-385): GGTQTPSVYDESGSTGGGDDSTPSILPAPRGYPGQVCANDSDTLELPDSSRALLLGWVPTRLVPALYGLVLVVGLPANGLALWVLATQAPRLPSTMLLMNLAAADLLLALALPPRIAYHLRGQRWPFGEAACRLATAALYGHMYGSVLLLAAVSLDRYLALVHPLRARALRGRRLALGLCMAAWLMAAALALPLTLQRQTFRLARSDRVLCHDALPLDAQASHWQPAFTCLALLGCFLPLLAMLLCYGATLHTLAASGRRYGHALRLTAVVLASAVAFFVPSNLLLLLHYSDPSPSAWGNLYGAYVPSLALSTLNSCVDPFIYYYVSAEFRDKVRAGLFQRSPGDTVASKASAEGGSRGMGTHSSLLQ

[2] = ACS patients, TRACER phase III trial; cited from earlier work

Structure (SMILES)	inhibition of PAR4-dependent platelet activation [1]	cardiovascular events [2]	risk of major bleeding [2]
CCOC(=O)c1ccc(-c2nn(Cc3ccccc3)c3ccccc23)cc1 [YD-3]	selective and potent inhibitor		
CCOC(=O)N[C@@H]1CC[C@@H]2[C@@H](C1)C[C@H]1C(=O)O[C@H](C)[C@H]1[C@H]2/C=C/c1ccc(-c2cccc(F)c2)cn1 [vorapaxar]		did not significantly reduce cardiovascular events	significantly increased the risk of major bleeding
